Data taken from ChEMBL document CHEMBL5241109, “Roles and drug development of METTL3 (methyltransferase-like 3) in anti-tumor therapy” (Eur J Med Chem, 2022).

How the values were obtained:
[1] = biological target: T1, N6-adenosine-methyltransferase catalytic subunit (Homo sapiens, UniProt Q86U44); assay: Inhibition of METTL3 (unknown origin) assessed as remaining activity at 500 uM relative to control
[2] = biological target: T1, N6-adenosine-methyltransferase catalytic subunit; assay: Inhibition of METTL3 (unknown origin)
[3] = Efflux ratio of apparent permeability across basolateral to apical side over apical to basolateral side in human Caco-2 cells; format: ADME, cell-based
[4] = Apparent permeability across apical to basolateral side in human Caco-2 cells; format: ADME, cell-based
[5] = Apparent permeability across basolateral to apical side in human Caco-2 cells; format: ADME, cell-based

T1 sequence (Q86U44 whole entry): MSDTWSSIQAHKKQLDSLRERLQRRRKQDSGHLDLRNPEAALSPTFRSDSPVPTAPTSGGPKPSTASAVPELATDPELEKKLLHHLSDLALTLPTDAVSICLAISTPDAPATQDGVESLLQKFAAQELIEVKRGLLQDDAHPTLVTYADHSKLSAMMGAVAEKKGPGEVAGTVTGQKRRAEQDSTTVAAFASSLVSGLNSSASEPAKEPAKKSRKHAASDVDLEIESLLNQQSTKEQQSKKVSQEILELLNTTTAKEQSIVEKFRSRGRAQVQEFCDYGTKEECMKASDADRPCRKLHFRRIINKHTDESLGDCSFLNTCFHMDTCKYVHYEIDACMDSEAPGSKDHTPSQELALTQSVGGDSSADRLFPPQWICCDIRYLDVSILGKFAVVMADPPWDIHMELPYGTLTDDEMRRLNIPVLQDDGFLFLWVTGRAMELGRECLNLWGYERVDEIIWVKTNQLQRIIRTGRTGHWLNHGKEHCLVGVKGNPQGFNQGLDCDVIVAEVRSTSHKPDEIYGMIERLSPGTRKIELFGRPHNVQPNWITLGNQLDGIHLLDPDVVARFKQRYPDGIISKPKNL

With CNC1CCC(O)(Cn2cnc3c(N)ncnc32)C(O)C1 (configuration not stated) the Activity [1] was 20% and the IC50 [2] was 98 µM.

For Nc1ncnc2c1ncn2C[C@H]1OC[C@@H](N)[C@H](O)[C@@H]1O, the Activity [1] was 107% and the IC50 [2] was greater than 250 µM.

In the case of Nc1ncnc2c1ncn2[C@@H]1O[C@H](C(=O)NCC2CCNCC2)[C@@H](O)[C@H]1O, the IC50 [2] is reported as greater than 250 µM.

In the case of CN1CCC(NC(=O)[C@H]2O[C@@H](n3cnc4c(N)ncnc43)[C@H](O)[C@@H]2O)CC1, the Activity [1] is reported as 18% and the IC50 [2] is reported as 65 µM.

With Nc1ncnc2c1ncn2[C@@H]1O[C@H](C(=O)NCCCNC(=O)c2ccccn2)[C@@H](O)[C@H]1O the Activity [1] was 38% and the IC50 [2] was 332 µM.

Nc1ncnc2c1ncn2[C@@H]1O[C@H](CO)[C@@H](O)[C@H]1O [ADENOSINE] showed an IC50 [2] of 495 µM.

With CC[C@H]1OC(=O)[C@H](C)[C@@H](O[C@H]2C[C@@](C)(OC)[C@@H](O)[C@H](C)O2)[C@H](C)[C@@H](O[C@@H]2O[C@H](C)C[C@H](N(C)C)[C@H]2O)[C@](C)(O)C[C@@H](C)C(=O)[C@H](C)[C@@H](O)[C@]1(C)O [ERYTHROMYCIN] the Ratio [3] was 62.9, the Papp [4] was 0.2 10^-6 cm/s and the Papp [5] was 17.5 10^-6 cm/s.

Compound Nc1ncnc2c1ncn2[C@@H]1O[C@H](C(=O)NCCCCN2CCCC2)[C@@H](O)[C@H]1O has an IC50 [2] of 8.7 µM.

Compound COCCc1ccc(OCC(O)CNC(C)C)cc1 (configuration not stated) [METOPROLOL] has an efflux ratio [3] of 1.1, a Papp A→B [4] of 31.4 ×10⁻⁶ cm/s and a Papp B→A [5] of 33.3 ×10⁻⁶ cm/s.
